Measurements from patent US9828350B2, “5,6-dihydro-2H-[1,4]oxazin-3-yl-amine derivatives useful as inhibitors of beta-secretase (BACE)” (Janssen Pharmaceutica NV, priority 2010, dated 2017).
Counter-ions that a name gives are not always drawn.

What was measured:
Abeta total = test: Cellular αLisa assay in SKNBE2 cells, Abeta total; assay type: cell-based, human; conditions: incubated for 18 hours; for IC50: Homo sapiens, SKNBE2, 18 h, read-out: Cellular αLisa assay in SKNBE2 cells Abetatotal pIC50 (converted)
Method in brief: (§1)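 Secreted Abeta levels were measured by sandwich αLisa, pairing biotin-AbN/25 donor beads with Ab4G8 acceptor beads for total Abeta or cAb42/26 for Abeta 1-42, read at 615 nm after 650 nm excitation following 1 hour. Cells were SKNBE2 expressing wild-type hAPP695, exposed to compound for 18 hours.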

[1] = target: recombinant BACE1 protein (Homo sapiens, UniProt P56817); test: Biochemical FRET based assay; conditions: recombinant BACE1 1 μg/ml, 120 minutes at room temperature, pH 5.0; for IC50: read-out: Biochemical FRET based assay pIC50 (converted)
Chain of recombinant BACE1 protein (P56817 46-501): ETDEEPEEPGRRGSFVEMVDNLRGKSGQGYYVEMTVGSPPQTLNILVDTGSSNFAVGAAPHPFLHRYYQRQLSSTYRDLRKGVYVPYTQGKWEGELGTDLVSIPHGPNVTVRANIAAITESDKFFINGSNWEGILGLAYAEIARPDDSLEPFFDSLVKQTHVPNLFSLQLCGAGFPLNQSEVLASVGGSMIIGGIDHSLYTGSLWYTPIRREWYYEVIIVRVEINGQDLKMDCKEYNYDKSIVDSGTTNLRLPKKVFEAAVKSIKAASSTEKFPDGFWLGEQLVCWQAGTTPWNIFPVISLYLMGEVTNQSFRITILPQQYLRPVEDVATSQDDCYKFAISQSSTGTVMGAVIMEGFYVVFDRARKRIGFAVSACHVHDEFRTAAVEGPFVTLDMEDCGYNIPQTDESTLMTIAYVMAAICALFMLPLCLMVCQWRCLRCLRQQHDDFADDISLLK
Method in brief: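 Proteolysis was read as the rise in donor fluorescence (320 nm excitation, 405 nm emission) from T0 to T120, expressed in RFU. The reaction ran 120 minutes at room temperature at pH 5.0 in citrate buffer with 4% DMSO, using […] quenched Swedish APP peptide and 1 μg/ml BACE1.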

Abeta 1-42 = test: Cellular αLisa assay in SKNBE2 cells, Abeta 1-42; assay type: cell-based, human; conditions: incubated for 18 hours; for IC50: Homo sapiens, SKNBE2, 18 h, read-out: Cellular αLisa assay in SKNBE2 cells Abeta 42 pIC50 (converted)
Method in brief: as §1

Aβ42 = test: Demonstration of in vivo efficacy, brain Aβ42 lowering (ELISA); conditions: mouse brain
Excerpt: (§2) To determine whether acute administration of an Aβ42 peptide lowering agent would reduce Aβ peptide levels in vivo, non-transgenic rodents, e.g. mice or rats were used. Animals treated with the Aβ peptide lowering agent were examined and compared to those untreated or treated with vehicle and brain levels of soluble Aβ42 and total Aβ were quantitated by standard techniques, for example, using ELISA.
(§3) A typical protocol for measuring Aβ42 lowering in vivo is shown but it is only one of many variations that could be used to optimize the levels of detectable Aβ. For example, Aβ peptide lowering compounds were formulated in 20% hydroxypropyl 3 cyclodextrin. The Aβ peptide lowering agents were administered as a single oral dose (p.o.) or a single subcutaneous dose (s.c.) to overnight fasted animals. After a certain time, usually 2 or 4 h (as indicated in Table 19), the animals were sacrificed and Aβ42 levels were analysed.
(§4) Blood was collected by decapitation and exsanguinations in EDTA-treated collection tubes. Blood was centrifuged at 1900 g for 10 minutes (min) at 4° C. and the plasma recovered and flash frozen for later analysis. The brain was removed from the cranium and hindbrain. The cerebellum was removed and the left and right hemisphere were separated. The left hemisphere was stored at −18° C. for quantitative analysis of test compound levels. The right hemisphere was rinsed with phosphate-buffered saline (PBS) buffer and immediately frozen on dry ice and stored at −80° C. until homogenization for biochemical assays.
(§5) Mouse brains from non-transgenic animals were resuspended in 8 volumes of 0.4% DEA (diethylamine)/50 mM NaCl containing protease inhibitors (Roche-11873580001 or 04693159001) per gram of tissue, e.g. for 0.158 g brain, add 1.264 ml of 0.4% DEA. All samples were homogenized in the FastPrep-24 system (MP Biomedicals) using lysing matrix D (MPBio #6913-100) at 6 m/s for 20 seconds. Homogenates were centrifuged at 221.300×g for 50 min. The resulting high speed supernatants were then transferred to fresh eppendorf tubes. Nine parts of supernatant were neutralized with 1 part 0.5 M Tris-HCl pH 6.8 and used to quantify Aβtotal and Aβ42.
(§6) To quantify the amount of Aβtotal and Aβ42 in the soluble fraction of the brain homogenates, Enzyme-Linked-Immunosorbent-Assays were used. Briefly, the standards (a dilution of synthetic Aβ1-40 and Aβ1-42, Bachem) were prepared in 1.5 ml Eppendorf tube in Ultraculture, with final concentrations ranging from 10000 to 0.3 pg/ml. The samples and standards were co-incubated with HRPO-labelled N-terminal antibody for Aβ42 detection and with the biotinylated mid-domain antibody 4G8 for Aβtotal detection. […] The plate was allowed to incubate overnight at 4° C. in order to allow formation of the antibody-amyloid complex. Following this incubation and subsequent wash steps the ELISA for Aβ42 quantification was finished by addition of Quanta Blu fluorogenic peroxidase substrate according to the manufacturer's instructions (Pierce Corp., Rockford, Ill.). A reading was performed after 10 to 15 min (excitation 320 nm/emission 420 nm).

Aβtotal = test: Demonstration of in vivo efficacy, brain Aβtotal lowering (ELISA); conditions: mouse brain
Excerpt: as §2, §3, §4, §5, §6
For Aβtotal detection, a Streptavidine-Peroxidase-Conjugate was added, followed 60 min later by an additional wash step and addition of Quanta Blu fluorogenic peroxidase substrate according to the manufacturer's instructions (Pierce Corp., Rockford, Ill.). A reading was performed after 10 to 15 min (excitation 320 nm/emission 420 nm).

P-gp = target: T1, P-gp (Homo sapiens, UniProt P08183); test: Transepithelial transport of test compounds through LLC-MDR1 monolayers; assay type: in vitro ADME; conditions: pig, LLC-PK1
T1 construct: expressed in transfected cells; host or cells: LLC-PK1 cells stably transduced with MDR1 (LLC-MDR1)
T1 sequence (P08183 whole entry): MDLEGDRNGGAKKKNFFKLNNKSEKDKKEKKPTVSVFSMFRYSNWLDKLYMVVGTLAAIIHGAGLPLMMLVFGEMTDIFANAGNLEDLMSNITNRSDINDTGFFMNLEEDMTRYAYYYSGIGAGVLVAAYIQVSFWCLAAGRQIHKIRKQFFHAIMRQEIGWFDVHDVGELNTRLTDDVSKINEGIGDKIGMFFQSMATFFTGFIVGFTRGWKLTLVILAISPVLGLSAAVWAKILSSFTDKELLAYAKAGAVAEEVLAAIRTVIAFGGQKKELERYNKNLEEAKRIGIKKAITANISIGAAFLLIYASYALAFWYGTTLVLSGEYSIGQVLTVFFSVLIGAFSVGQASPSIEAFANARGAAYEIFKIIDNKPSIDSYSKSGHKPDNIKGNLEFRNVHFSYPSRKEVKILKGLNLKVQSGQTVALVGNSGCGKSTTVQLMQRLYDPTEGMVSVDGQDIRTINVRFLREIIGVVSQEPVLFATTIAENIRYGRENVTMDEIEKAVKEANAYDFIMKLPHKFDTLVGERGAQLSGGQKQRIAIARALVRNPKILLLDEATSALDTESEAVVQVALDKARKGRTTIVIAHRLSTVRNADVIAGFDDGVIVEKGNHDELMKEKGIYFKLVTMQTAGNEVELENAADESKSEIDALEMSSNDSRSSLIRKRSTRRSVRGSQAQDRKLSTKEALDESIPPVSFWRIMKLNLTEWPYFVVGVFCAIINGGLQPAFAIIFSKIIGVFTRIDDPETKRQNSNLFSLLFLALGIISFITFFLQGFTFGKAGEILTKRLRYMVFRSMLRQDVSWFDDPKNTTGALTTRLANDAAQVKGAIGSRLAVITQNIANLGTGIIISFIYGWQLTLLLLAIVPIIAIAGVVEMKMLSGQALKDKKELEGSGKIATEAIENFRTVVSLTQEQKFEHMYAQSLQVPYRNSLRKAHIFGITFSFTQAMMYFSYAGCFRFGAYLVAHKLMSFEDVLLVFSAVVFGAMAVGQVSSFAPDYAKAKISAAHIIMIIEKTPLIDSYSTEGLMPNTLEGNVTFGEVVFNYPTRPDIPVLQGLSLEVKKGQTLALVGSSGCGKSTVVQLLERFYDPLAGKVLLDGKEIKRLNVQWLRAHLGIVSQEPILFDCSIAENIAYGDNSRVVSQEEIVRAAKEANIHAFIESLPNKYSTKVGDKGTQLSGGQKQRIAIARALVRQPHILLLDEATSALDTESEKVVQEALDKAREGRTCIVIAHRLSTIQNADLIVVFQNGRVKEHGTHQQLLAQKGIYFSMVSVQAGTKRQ
Description: Brief Assay Description for the Measurement of Transepithelial Transport of Test Compounds Through LLC-MDR1 Monolayers
The purpose of this assay was to assess both the in vitro passive permeability of test compounds and their ability to be transported substrates of P-gp using LLC-PK1 cells stably transduced with MDR1 in a trans-well system. The positive control for transport was ^3H-digoxin (30 nM) and the positive control inhibitor was GF120918 (5 μM). The marker compound for low permeability was ^14C-Mannitol (1 μM). The test compound concentration was 1 μM.
The integrity of the cellular monolayer was assessed in each incubation well through the inclusion of the fluorescent, low permeability marker compound, Fluorescein.
In detail, LLC-MDR1 cells were seeded on 24-well cell culture inserts (Millicell®-PCF, 0.4 μm, 13 mm diameter, 0.7 cm^2) at 400,000 cells/cm^2. Cell culture medium consisted of Medium 199 supplemented with 10% Foetal Bovine Serum (FBS) and 100 U/ml Penicillin/streptomycin and was replaced the day after seeding and the day before the experiment. The transport experiment was performed 5 days after seeding. On the day of the experiment, solutions of the test compounds were applied to the apical or basolateral side of the monolayers to assess transport in the A to B and B to A directions, respectively. The medium used in the assay was (OPTI-MEM (1×) (GIBCO) with 1 w/v % Bovine Serum Albumin. Inserts were incubated at 37° C. in a humidified incubator containing 5% CO2. Samples from the acceptor and donor compartments were collected after an incubation time of 120 min, to assess the permeability and to allow estimation of the test compound recovery during the experiment, respectively. Transport experiments were performed in triplicate. Absolute test compound concentrations were measured using LC-MS/MS and quantified via a calibration curve.

Structure (SMILES) | Cellular αLisa assay in SKNBE2 cells Abetatotal pIC50 (Abeta total) | Biochemical FRET based assay pIC50 [1] | Cellular αLisa assay in SKNBE2 cells Abeta 42 pIC50 (Abeta 1-42) | IC50 (Abeta total) | IC50 [1] | IC50 (Abeta 1-42) | Aβ42 (% Ctrl)_Mean (Aβ42; 30 mpk, s.c., 2 h) | Aβtotal (% Ctrl)_Mean (Aβtotal; 30 mpk, s.c., 2 h) | other results
CC1(c2cccc(NC(=O)c3ccc(C(F)(F)F)cn3)c2)COCC(N)=N1 (racemic) [Compound 14] | 7.56 | 6.28 | 7.49 | – | – | – | – | – | Aβ42 (% Ctrl)_Mean (Aβ42; 30 mpk, s.c., 4 h): 107 % Ctrl; Aβtotal (% Ctrl)_Mean (Aβtotal; 30 mpk, s.c., 4 h): 116 % Ctrl
CC1(c2cc(NC(=O)c3ccc(C#N)cn3)ccc2F)N=C(N)COC1F (single isomer, unassigned) [Compound 124] | 8.2 | – | 8.21 | – | – | – | – | – | Aβ42 (% Ctrl)_Mean (Aβ42; 30 mpk, p.o., 4 h): 23 % Ctrl; Aβtotal (% Ctrl)_Mean (Aβtotal; 30 mpk, p.o., 4 h): 25 % Ctrl
CC1(c2cc(-c3cncnc3)c(F)cc2F)COCC(N)=N1 (racemic) [Compound 59] | 6.417 | 5.36 | 6.44 | – | – | – | 114 % Ctrl | 95 % Ctrl | –
COc1cnc(C(=O)Nc2ccc(F)c([C@@]3(C)N=C(N)CO[C@@H]3F)c2)cn1 [Compound 123] | – | – | – | 10.5 nM | – | 10.7 nM | – | – | Aβ42 (% Ctrl)_Mean (Aβ42; 10 mpk, p.o., 4 h): 38 % Ctrl; Aβ42 (% Ctrl)_Mean (Aβ42; 10 mpk, s.c., 4 h): 24 % Ctrl; Aβtotal (% Ctrl)_Mean (Aβtotal; 10 mpk, p.o., 4 h): 38 % Ctrl; Aβtotal (% Ctrl)_Mean (Aβtotal; 10 mpk, s.c., 4 h): 21 % Ctrl
N#Cc1cnc(C(=O)Nc2ccc(F)c([C@@]3(C4CC4)N=C(N)CO[C@@H]3F)c2)c(Cl)c1 [Compound 218] | – | – | – | 832 nM | 126 nM | 851 nM | 99 % Ctrl | 90 % Ctrl | –
CC1(c2cccc(-c3cncnc3)c2)N=C(N)COC1F (single isomer, unassigned) [Compound 96] | 6.43 | – | 6.46 | – | 11200 nM | – | – | – | Aβ42 (% Ctrl)_Mean (Aβ42; 30 mpk, s.c., 4 h): 116 % Ctrl; Aβtotal (% Ctrl)_Mean (Aβtotal; 30 mpk, s.c., 4 h): 104 % Ctrl
CC1(c2cccc(-c3cncnc3)c2)N=C(N)COC1(F)C(F)(F)F (single isomer, unassigned) [Compound 117] | 6.55 | – | 6.59 | – | 437 nM | – | 95 % Ctrl | 86 % Ctrl | –
COc1cnc(C(=O)Nc2ccc(F)c([C@@]3(C4CC4)N=C(N)CO[C@H]3F)c2)cn1 [Compound 217] | – | – | – | 490 nM | – | 525 nM | – | – | Aβ42 (% Ctrl)_Mean (Aβ42; 30 mpk, p.o., 2 h): 80 % Ctrl; Aβtotal (% Ctrl)_Mean (Aβtotal; 30 mpk, p.o., 2 h): 73 % Ctrl
CC1(c2cccc(NC(=O)c3ccc(C#N)cn3)c2)COCC(N)=N1 (single isomer, unassigned) [Compound 50] | 7.88 | 6.93 | 7.91 | – | – | – | – | – | Aβ42 (% Ctrl)_Mean (Aβ42; 5 mpk, s.c., 4 h): 133 % Ctrl; Aβtotal (% Ctrl)_Mean (Aβtotal; 5 mpk, s.c., 4 h): 95 % Ctrl

Further lines, with some results ahead:

Cellular αLisa assay in SKNBE2 cells Abetatotal pIC50 (Abeta total) | Biochemical FRET based assay pIC50 [1] | Cellular αLisa assay in SKNBE2 cells Abeta 42 pIC50 (Abeta 1-42) | IC50 (Abeta total) | IC50 [1] | IC50 (Abeta 1-42) | Structure (SMILES) | Aβ42 (% Ctrl)_Mean (Aβ42; 30 mpk, s.c., 2 h) | Aβtotal (% Ctrl)_Mean (Aβtotal; 30 mpk, s.c., 2 h) | other results
– | – | – | 282 nM | 93.3 nM | 309 nM | NC1=N[C@@](c2cc(NC(=O)c3ncc(Cl)cc3F)ccc2F)(C2CC2)[C@@H](F)OC1 [Compound 219] | 95 % Ctrl | 86 % Ctrl | –
– | – | – | 13.8 nM | 39.8 nM | 15.5 nM | C[C@]1(c2cc(NC(=O)c3ncc(C#N)cc3Cl)ccc2F)N=C(N)CO[C@@H]1F [Compound 209] | – | – | Aβ42 (% Ctrl)_Mean (Aβ42; 10 mpk, p.o., 4 h): 6 % Ctrl; Aβtotal (% Ctrl)_Mean (Aβtotal; 10 mpk, p.o., 4 h): 14 % Ctrl
7.06 | – | 7.05 | – | 363 nM | – | CC1(c2cccc(-c3cncc(C#N)c3)c2)N=C(N)COC1C(F)(F)F (single isomer, unassigned) [Compound 204] | – | – | Aβ42 (% Ctrl)_Mean (Aβ42; 30 mpk, s.c., 4 h): 113 % Ctrl; Aβtotal (% Ctrl)_Mean (Aβtotal; 30 mpk, s.c., 4 h): 103 % Ctrl
– | – | – | 1020 nM | 24000 nM | 1480 nM | CC1(c2cccc(-c3ccccc3)c2)COCC(N)=N1 (racemic) [Compound 1, rac-5-biphenyl-3-yl-5-methyl-5,6-dihydro-2H-1,4-oxazin-3-amine trifluoroacetate salt] | – | – | Aβ42 (% Ctrl)_Mean (Aβ42; 30 mpk, s.c., 4 h): 102 % Ctrl; Aβtotal (% Ctrl)_Mean (Aβtotal; 30 mpk, s.c., 4 h): 97 % Ctrl
– | – | – | 339 nM | 1550 nM | 347 nM | COc1cncc(-c2cccc(C3(C)N=C(N)COC3F)c2)c1 (stereo not drawn) [Compound 100] | – | – | melting point: 139.2 °C; efflux ratio at 120 min, 1 μM (P-gp; LLC-MDR1 monolayers, ratio of B to A and A to B permeation rates, read-out: BA/AB): 3.6; Papp A→B at 120 min, 1 μM (P-gp; read-out: A to B (Apparent Permeability, Papp)): 7.6 ×10⁻⁶ cm/s; Papp B→A at 120 min, 1 μM (P-gp; read-out: B to A (Apparent Permeability, Papp)): 27.4 ×10⁻⁶ cm/s
6.66 | 6.06 | 6.68 | – | – | – | C[C@@]1(c2cccc(-c3cc(Cl)cc(Cl)c3)c2)COCC(N)=N1 [Compound 52] | 68 % Ctrl | 114 % Ctrl | –
7.35 | 6.67 | 7.31 | – | – | – | COc1cnc(C(=O)Nc2cccc(C3(C4CC4)N=C(N)COC3C(F)(F)F)c2)cn1 (stereo not drawn) [Compound 228] | – | – | Aβ42 (% Ctrl)_Mean (Aβ42; 30 mpk, p.o., 2 h): 99 % Ctrl; Aβtotal (% Ctrl)_Mean (Aβtotal; 30 mpk, p.o., 2 h): 79 % Ctrl
